As usually defined, the IC50 is the concentration at which inhibition is half-maximal. Low values mean inhibition by little substance, high ones a need for much substance.

In the first experiment the test system is H358 cells. The experiment is described as follows: Cell activity experiment: activity test of H358 cells (MTT, 5 days). Type of experiment: cell-based. The note with it: 5 days incubation, absorbance 492 nm. In outline:
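H358 cells seeded 90 μL at 55555 cells/mL, grown 24 h, then exposed to 3-fold serial compound dilutions (final top 10000 nM, 0.5% DMSO) in triplicate for 5 days at 37° C., 5% CO2. Viability by MTT (4 h), formazan dissolved in DMSO, absorbance at 492 nm.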
`C=CC(=O)N1CC[C@H]2[C@H]1CN2c1c(Cl)c(-c2cccc3c2CCCC3)cc2nc(OC[C@@]34CCCN3C[C@H](F)C4)ncc12` [Example 473] displayed an IC50 of 35 nM. `C=CC(=O)N1CC[C@H]2[C@H]1CN2c1nc(OC[C@@]23CCCN2C[C@H](F)C3)nc2cc(-c3cccc4cccc(Cl)c34)c(Cl)cc12` [Example 474] showed an IC50 of 30 nM. On the same count and under the same terms, for `C=CC(=O)N1CC[C@H]2[C@H]1CN2c1nc(OC[C@@]23CCCN2C[C@H](F)C3)nc2cc(-c3cccc4ccc(F)c(Cl)c34)c(Cl)cc12` [Example 475] the value was 25 nM; for `C=CC(=O)N1CCN(c2c(C#N)c(OC[C@@H]3CCCN3C)nc3cc(-c4cccc5c4CCCC5)c(Cl)cc23)C[C@@H]1CC#N` [Example 622], 231 nM. Still for that read-out and setting: for `C=C(F)C(=O)N1CCN(c2nc(OC[C@@H]3CCCN3C)nc3c(F)c(-c4cccc5c4CC4CC54)ccc23)C[C@@H]1CC#N` (some centres unmarked) [Example 872] the value was 8.4 nM.

The same experiment, now with this note: Homo sapiens, NCI-H358, 120 h, 5 days incubation, absorbance 492 nm.
`C=CC(=O)N1CCN(c2nc(OC[C@@H]3C[C@@H](F)CN3C)nc3c(F)c(-c4cccc5c4CCCC5)c(F)cc23)C[C@@H]1CC#N` [Example 432] came in with an IC50 of 2.4 nM. The molecule `C=CC(=O)N1CCN(c2nc(OC[C@@H]3CCCN3C)nc3cc(-c4cccc5ccc(F)c(Cl)c45)c(Cl)cc23)C[C@@H]1CC#N` [Example 466] showed a concentration for half-maximal inhibition (IC50) of 65 nM. Still for that read-out and setting: for `C=CC(=O)N1CCN(c2nc(OC[C@@H]3C[C@@H](F)CN3C)nc3cc(-c4cccc5c4CCCC5)c(Cl)cc23)C[C@@H]1CC#N` [Example 467] the value was 80 nM; for `C=CC(=O)N1CCN(c2nc(OC[C@@H]3C[C@@H](F)CN3C)nc3cc(-c4cccc5cccc(Cl)c45)c(Cl)cc23)C[C@@H]1CC#N` [Example 468], 75 nM.

As for `C=CC(=O)N1CCN(c2nc(OC[C@@H]3C[C@@H](F)CN3C)nc3cc(-c4cccc5ccc(F)c(Cl)c45)c(Cl)cc23)C[C@@H]1CC#N` [Example 469], the 50% inhibitory concentration (IC50) turned out to be 70 nM. The same measure, in the same setting: with `C=CC(=O)N1CCN(c2nc(OCC34CCCN3CCC4)nc3cc(-c4cccc5c4CCCC5)c(Cl)cc23)C[C@@H]1CC#N` [Example 470] the figure was 50 nM.

The molecule `C=CC(=O)N1CC[C@H]2[C@H]1CN2c1nc(OCC23CCCN2CCC3)nc2cc(-c3cccc4cccc(Cl)c34)c(Cl)cc12` [Example 471, 1-((1R,5S)-6-(6-chloro-7-(8-chloronaphthalen-1-yl)-2-((tetrahydro-1H-pyrrolizin-7a(5H)-yl)methoxy)quinazolin-4-yl)-2,6-diazabicyclo[3.2.0]hept-2-yl)prop-2-en-1-one] yielded an IC50 of 45 nM. On the same count and under the same terms, with `C=CC(=O)N1CC[C@H]2[C@H]1CN2c1nc(OCC23CCCN2CCC3)nc2cc(-c3cccc4ccc(F)c(Cl)c34)c(Cl)cc12` [Example 472, 1-((1R,5S)-6-(6-chloro-7-(8-chloro-7-fluoronaphthalen-1-yl)-2-((tetrahydro-1H-pyrrolizin-7a(5H)-yl)methoxy)quinazolin-4-yl)-2,6-diazabicyclo[3.2.0]hept-2-yl)prop-2-en-1-one] the figure was 40 nM.

Consider `C=CC(=O)N1CCN(c2nc(OC[C@@]34CCCN3C[C@H](F)C4)nc3c(F)c(-c4cccc5cccc(Cl)c45)c(Cl)cc23)C[C@@H]1CC#N` [Example 510], for which inhibition was half-maximal at 130 nM (IC50). Still for that read-out and setting: for `C=CC(=O)N1CCN(c2nc(OC[C@@H]3CCCN3C)nc3cc(-c4cccc5c4C4CC4C5)ccc23)C[C@@H]1CC#N` (some centres unmarked) [Example 536] the value was 30 nM; for `C=C(F)C(=O)N1CCN(c2nc(OC[C@@H]3CCCN3C)nc3cc(-c4cccc5c4C4CC4C5)ccc23)C[C@@H]1CC#N` (stereo partly drawn) [Example 537, 2-((2S)-1-(2-fluoroacryloyl)-4-(2-(((S)-1-methylpyrrolidin-2-yl)methoxy)-7-(1,1a,6,6a-tetrahydrocyclopropa[a]inden-2-yl)quinazolin-4-yl)piperazin-2-yl)acetonitrile], 150 nM. Turning to `C=CC(=O)N1CCN(c2nc(OC[C@@H]3CCCN3C)nc3c(F)c(N4CCCc5cc(F)ccc54)c(Cl)cc23)CC1` [Example 615, (S)-1-(4-(6-chloro-8-fluoro-7-(6 fluoro-3,4-dihydroquinoline-1(2H)-yl)-2-((1-methylpyrrolidin-2-yl)methoxy)quinazolin-4-yl)piperazin-1-yl)prop-2-en-1-one], inhibition was half-maximal at 1010 nM (IC50). The same measure, in the same setting: with `C=CC(=O)N1CCN(c2nc(OC[C@@H]3CCCN3C)nc3c(F)c(N4CCCc5cc(F)ccc54)ccc23)C[C@@H]1CC#N` [Example 616] the figure was 473 nM; with `C=CC(=O)N1CCN(c2nc(OC[C@@H]3CCCN3C)nc3c(F)c(N4CCc5cc(F)ccc54)ccc23)CC1` [Example 617], 884 nM. The same measure, in the same setting: for `C=CC(=O)N1CCN(c2nc(OC[C@@H]3CCCN3C)nc3cc(N4CCCc5cccc(Cl)c54)ccc23)C[C@@H]1CC#N` [Example 618] the value was 200 nM. Same read-out and setting: for `C=C(F)C(=O)N1CCN(c2nc(OC[C@@H]3CCCN3C)nc3cc(N4CCCc5cccc(Cl)c54)ccc23)C[C@@H]1CC#N` [Example 619, 2-((S)-4-(7-(8-chloro-3,4-dihydroquinoline-1(2H)-yl)-2-(((S)-1-methylpyrrolidin-2-yl)methoxy)quinazolin-4-yl)-1-(2-fluoroacryloyl)piperazin-2-yl)acetonitrile] the value was 496 nM; for `C=CC(=O)N1CCN(c2c(C#N)c(OCC34CCCN3CCC4)nc3cc(-c4cccc5ccc(F)c(Cl)c45)ccc23)C[C@@H]1CC#N` [Example 620], 138 nM. The molecule `C=CC(=O)N1CCN(c2c(CC#N)c(OCC34CCCN3CCC4)nc3cc(-c4cccc5ccc(F)c(Cl)c45)c(F)cc23)C[C@@H]1CC#N` [Example 621, (S)-4-(4-acryloyl-3-(cyanomethyl)piperazin-1-yl)-7-(8-chloro-7-fluoronaphthalen-1-yl)-6-fluoro-2-((tetrahydro-1H-pyrrolizin-7a(5H)-yl)methoxy)quinoline-3-acetonitrile] registered an IC50 of 330 nM. `C=CC(=O)N1CCN(C2=C(C#N)C(OC[C@@H]3CCCN3C)=NC3C=C(c4cccc5ccc(F)c(Cl)c45)C=CC23)C[C@@H]1CC#N` (some centres unmarked) [Example 623] yielded a half-inhibitory concentration (IC50) of 200 nM. Still for that read-out and setting: with `C=C(F)C(=O)N1CCN(C2=C(C#N)C(OC[C@@H]3CCCN3C)=NC3C=C(c4cccc5ccc(F)c(Cl)c45)C=CC23)C[C@@H]1CC#N` (some centres unmarked) [Example 624] the figure was 800 nM; with `C=CC(=O)N1CCN(C2=C(C#N)C(OC[C@@H]3C[C@@H](F)CN3C)=NC3C=C(c4cccc5ccc(F)c(Cl)c45)C=CC23)C[C@@H]1CC#N` (some centres unmarked) [Example 625], 850 nM. Same read-out and setting: with `C=C(F)C(=O)N1CCN(C2=C(C#N)C(OC[C@@H]3C[C@@H](F)CN3C)=NC3C=C(c4cccc5ccc(F)c(Cl)c45)C=CC23)C[C@@H]1CC#N` (some centres unmarked) [Example 626] the figure was 1500 nM; with `C=C(F)C(=O)N1CCN(C2=C(C#N)C(OCC34CCCN3CCC4)=NC3C=C(c4cccc5ccc(F)c(Cl)c45)C=CC23)C[C@@H]1CC#N` (some centres unmarked) [Example 627], 120 nM. Same read-out and setting: with `C=CC(=O)N1CCN(C2=C(C#N)C(OC[C@@]34CCCN3C[C@H](F)C4)=NC3C=C(c4cccc5ccc(F)c(Cl)c45)C=CC23)C[C@@H]1CC#N` (some centres unmarked) [Example 628] the figure was 60 nM; with `C=C(F)C(=O)N1CCN(C2=C(C#N)C(OC[C@@]34CCCN3C[C@H](F)C4)=NC3C=C(c4cccc5ccc(F)c(Cl)c45)C=CC23)C[C@@H]1CC#N` (some centres unmarked) [Example 629], 120 nM.

In the case of `C=CC(=O)N1CCN(c2nc(OCC3(CN4CCCC4)CC3)nc3c(F)c(-c4cccc5cccc(Cl)c45)ccc23)C[C@@H]1CC#N` [Example 855, (S)-2-(1-acryloyl-4-(7-(8-chloronaphthalen-1-yl)-8-fluoro-2-((1-(pyrrolidin-1-ylmethyl)cyclopropyl)methoxy)quinazolin-4-yl)piperazin-2-yl)acetonitrile], the IC50 was found to be 5.1 nM. The same measure, in the same setting: for `C=C(F)C(=O)N1CCN(c2nc(OC[C@@H]3CCCN3C)nc3c(F)c(-c4cccc5ccc(F)c(Cl)c45)ccc23)C[C@@H]1CC#N` [Example 913] the value was 3.6 nM. Same read-out and setting: with `C=C(F)C(=O)N1CCN(c2nc(OC[C@@]34CCCN3C[C@H](F)C4)nc3c(OC4CC4)c(-c4cccc5ccc(F)c(Cl)c45)c(Cl)cc23)C[C@@H]1CC#N` [Example 915, 2-((2S)-4-(6-chloro-7-(8-chloro-7-fluoronaphthalen-1-yl)-8-cyclopropoxy-2-((2R,7aS)-2-fluorotetrahydro-1H-pyrrolizin-7a(5H)-ylmethoxy)quinazolin-4-yl)-1-(2-fluoroacryloyl)piperazin-2-yl)acetonitrile] the figure was 33 nM. Consider `C=C(F)C(=O)N1CCN(c2nc(OC[C@@]34CCCN3C[C@H](F)C4)nc3c(OC4CC4)c(-c4cccc5cccc(Cl)c45)c(Cl)cc23)C[C@@H]1CC#N` [Example 916], for which the IC50 amounted to 37 nM. On the same count and under the same terms, with `C=CC(=O)N1CCN(c2nc(OC[C@@]34CCCN3C[C@H](F)C4)nc3c(OC4CC4)c(-c4cccc5ccc(F)c(Cl)c45)c(Cl)cc23)C[C@@H]1CC#N` [Example 920, 2-((2S)-1-acryloyl-4-(6-chloro-7-(8-chloro-7-fluoronaphthalen-1-yl)-8-cyclopropoxy-2-((2R,7aS)-2-fluorotetrahydro-1H-pyrrolizin-7a(5H-yl)methoxy)quinazolin-4-yl)piperazin-2-yl)acetonitrile] the figure was 31 nM; with `C=C(F)C(=O)N1CCN(c2nc(OC[C@@H]3CCCN3C)nc3c(OC4CC4)c(-c4cccc5ccc(F)c(Cl)c45)c(Cl)cc23)C[C@@H]1CC#N` [Example 924], 49 nM. In the case of `C=C(F)C(=O)N1CCN(c2nc(OC[C@@]34CCCN3C[C@H](F)C4)nc3c(OC4CC4)c(-c4c(C)ccc5[nH]ncc45)c(Cl)cc23)C[C@@H]1CC#N` [Example 932, 2-((2S)-4-(6-chloro-8-cyclopropoxy-2-((2R,7aS)-2-fluorotetrahydro-1H-pyrrolizin-7a(5H)-ylmethoxy)-7-(5-methyl-1H-indazol-4-yl)quinazolin-4-yl)-1-(2-fluoroacryloyl)piperazin-2-yl)acetonitrile], the 50% inhibitory concentration (IC50) stood at 0.4 nM. With `C=CC(=O)N1CCN(c2nc(OC[C@@]34CCCN3C[C@H](F)C4)nc3c(OC4CC4)c(-c4c(C)ccc5[nH]ncc45)c(Cl)cc23)C[C@@H]1CC#N` [Example 933], the half-maximal inhibitory concentration (IC50) was 0.3 nM.

Source of the values: patent US20240109893A1, “PREPARATION AND APPLICATION METHOD OF HETEROCYCLIC COMPOUNDS AS KRAS INHIBITOR” (SHANGHAI KECHOW PHARMA, INC., priority 2020, published 2024).
